Key:
Format in all cases: functional
Conditions in all cases: read-out: ED50 (the source's name)
HT-29 = experiment: Cytotoxicity against human HT-29 cells
A549 = experiment: Cytotoxicity against human A549 cells
P388 = experiment: Cytotoxicity against mouse P388 cells
SK-MEL-28 = experiment: Cytotoxicity against human SK-MEL-28 cells

Measured: EC50

CC(C)=CCC[C@@H](C)[C@H]1C[C@@H]2OC(=O)C[C@@H]3C(=O)CC[C@@]1(C)[C@H]23 [3-EPI-APLYKURODINONE B]
2.5 µg/mL: all assays above

Source: ChEMBL document CHEMBL1146415, “3-Epi-aplykurodinone B, a new degraded sterol from Aplysia fasciata” (1997)
